# Target: T1, recombinant human G9a protein (Homo sapiens, UniProt Q96KQ7)
# T1 construct: purchased BPS Bioscience Inc. #51001
# T1 sequence (Q96KQ7 785-1210 limits assumed): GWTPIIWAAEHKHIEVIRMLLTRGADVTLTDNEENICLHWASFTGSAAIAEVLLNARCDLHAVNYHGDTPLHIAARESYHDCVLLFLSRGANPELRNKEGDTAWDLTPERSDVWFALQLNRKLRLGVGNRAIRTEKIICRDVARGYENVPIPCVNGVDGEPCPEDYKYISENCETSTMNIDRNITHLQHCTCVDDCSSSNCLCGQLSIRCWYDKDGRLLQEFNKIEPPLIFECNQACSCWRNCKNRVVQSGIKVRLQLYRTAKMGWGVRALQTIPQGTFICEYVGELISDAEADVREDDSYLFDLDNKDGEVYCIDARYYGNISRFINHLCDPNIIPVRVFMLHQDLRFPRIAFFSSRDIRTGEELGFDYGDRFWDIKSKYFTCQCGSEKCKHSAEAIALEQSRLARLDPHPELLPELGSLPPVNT
# Experiment: G9a inhibitory activity test (ALPHA)
# Type: biochemical
# Conditions: biotinylated histone H3 peptide (1-21), SAM, read-out: Inhibitory activity (G9a IC50 value)
# Protocol: The G9a inhibitory activity of each compound was evaluated by measuring the enzymatic activity of G9a by amplified luminescence proximity homogeneous assay (ALPHA). First, 7.5 μL of a dilution of recombinant human G9a protein (BPS Bioscience Inc., #51001) diluted to 0.05 to 0.1 nM with a Tris buffer solution (50 mM Tris-HCl [pH 9.0], 50 mM NaCl, 0.01% Tween-20, 1 mM DTT), and 0.5 μL of the test compound were added to each well of a 384-well microplate (AlphaPlate-384 Shallow Well, PerkinElmer, Inc., #6008359), mixed by vortex, and incubated at room temperature for 10 minutes. 500 nM biotinylated histone H3 peptide (1-21) (AnaSpec Inc., #61702) and 150 μM SAM (Sigma-Aldrich Co. LLC, #A7007) were mixed at 1:1 in advance, and 2 μL of the mixture was added to each well, mixed by vortex, and then incubated at room temperature for 1 hour. AlphaLISA anti-H3K9me2 acceptor beads (PerkinElmer, Inc., #AL117C) and AlphaScreen streptavidin donor beads (PerkinElmer, Inc., #6760002B) were each diluted with an epigenetic buffer (PerkinElmer, Inc., AlphaLISA Epigenetics Buffer Kit #AL008C) to a final concentration of […] after addition. These dilutions were added to the reaction solution in the dark and incubated at room temperature for 1 hour in the dark. Then, measurement was performed using the EnSpire Alpha plate reader (PerkinElmer, Inc., Waltham, Mass., USA). The G9a inhibitory activity of the test compound was calculated as a compound concentration necessary for suppressing G9a enzymatic activity by 50% (IC50 value), by determining the percent inhibition of the compound when the value of a control without the addition of the compound was defined as 0% and the value of a control without the addition of the enzyme was defined as 100%.
row,SMILES,IC50
1,Cc1ccc(NC(=O)C(CCC2CC2)NC(=O)c2[nH]c3c(c2C)C(=O)CC(C)(C)C3)cc1 (stereo not shown) [Example 1-61],50 to 200 nM
2,COCc1ccc(NC(=O)C(CCC2CC2)NC(=O)c2[nH]c3c(c2C)C(=O)CC(C)(C)C3)cn1 (stereo not shown) [Example 1-60],≥ 200 nM
3,CCCCC(NC(=O)c1[nH]c2c(c1C)C(=O)CC(C)(C)C2)C(=O)Nc1ccccc1COC (stereo not shown) [Example 1-22],≥ 200 nM
4,CCCCC(NC(=O)c1[nH]c2c(c1C)C(=O)CC(C)(C)C2)C(=O)Nc1ccccc1CC (stereo not shown) [Example 1-23],50 to 200 nM
5,Cc1c(C(=O)NC(CCC2CC2)C(=O)Nc2cccc(C#N)c2)[nH]c2c1C(=O)CC(C)(C)C2 (stereo not shown) [Example 1-62],50 to 200 nM
6,CCCCC(NC(=O)c1[nH]c2c(c1C)C(=O)CC(C)(C)C2)C(=O)Nc1ccccc1C (stereo not shown) [Example 1-13],≥ 200 nM
7,CCc1ccccc1NC(=O)C(CCC1CC1)NC(=O)c1[nH]c2c(c1C)C(=O)CC(C)(C)C2 (stereo not shown) [Example 1-84],< 50 nM
8,CCCCC(NC(=O)c1[nH]c2c(c1C)C(=O)CC(C)(C)C2)C(=O)Nc1cccnc1C (stereo not shown) [Example 1-107],≥ 200 nM
9,CCCCC(NC(=O)c1[nH]c2c(c1C)C(=O)CC(C)(C)C2)C(=O)Nc1cccc2[nH]ccc12 (stereo not shown) [Example 1-90],≥ 200 nM
10,Cc1c(C(=O)NC(CCC2CC2)C(=O)N2CCc3c(CN(C)C)cccc32)[nH]c2c1C(=O)CC(C)(C)C2 (stereo not shown) [Example 1-59],50 to 200 nM
11,CCCCC(NC(=O)c1[nH]c2c(c1C)C(=O)CC(C)(C)C2)C(=O)NCc1ccc(Cl)cc1 (stereo not shown) [Example 1-43],≥ 200 nM
12,CCCCC(NC(=O)c1[nH]c2c(c1C)C(=O)CC(C)(C)C2)C(=O)Nc1ccc(OCCN(C)C(=O)OC(C)(C)C)nc1 (stereo not shown) [Example 1-57],≥ 200 nM
13,CSc1ccccc1NC(=O)C(CCC1CC1)NC(=O)c1[nH]c2c(c1C)C(=O)CC(C)(C)C2 (stereo not shown) [Example 1-83],< 50 nM
14,Cc1c(C(=O)NC(CCC2CC2)C(=O)N2CCc3cc(C#N)ccc32)[nH]c2c1C(=O)CC(C)(C)C2 (stereo not shown) [Example 1-64],≥ 200 nM
15,CCCCC(NC(=O)c1[nH]c2c(c1C)C(=O)CC(C)(C)C2)C(=O)Nc1ccc(NC2CCN(C)CC2)nc1 (stereo not shown) [Example 1-5],< 50 nM
16,Cc1c(C(=O)NC(CCC2CC2)C(=O)NC2(c3ccc(C#N)cc3)CC2)[nH]c2c1C(=O)CC(C)(C)C2 (stereo not shown) [Example 1-69],≥ 200 nM
17,CCCCC(NC(=O)c1[nH]c2c(c1C)C(=O)CC(C)(C)C2)C(=O)Nc1ccc2[nH]c(C)cc2c1 (stereo not shown) [Example 1-95],≥ 200 nM
18,CCCCC(NC(=O)c1[nH]c2c(c1C)C(=O)CC(C)(C)C2)C(=O)Nc1ccc(OC2CCN(C)CC2)cc1OC (stereo not shown) [Example 1-8],< 50 nM
19,Cc1c(C(=O)NC(CCC2CC2)C(=O)Nc2ccc(OC3COC3)nc2)[nH]c2c1C(=O)CC(C)(C)C2 (stereo not shown) [Example 1-71],≥ 200 nM
20,CCCCC(NC(=O)c1[nH]c2c(c1C)C(=O)CC(C)(C)C2)C(=O)NC(C)(C)c1ccccc1 (stereo not shown) [Example 1-40],≥ 200 nM

# Same assay, conditions: read-out: Inhibitory activity (G9a IC50)
row,SMILES,IC50
1,"Cc1c(C(=O)N[C@H](CCC2CC2)C(=O)N[C@@H](C)c2ccccc2)[nH]c2c1C(=O)CC(C)(C)C2 [Example 13-2, N-((R)-4-Cyclopropyl-1-oxo-1-(((S)-1-phenylethyl)amino)butan-2-yl)-3,6,6-trimethyl-4-oxo-4,5,6,7-tetrahydro-1H-indole-2-carboxamide]",≥ 200 nM
2,Cc1c(C(=O)N[C@@H](CCC2CC2)C(=O)N2CCc3c(OCCN(C)C)cccc32)[nH]c2c1C(=O)CC(C)(C)C2 [Example 6-107],50 to 200 nM
3,CCCCC(NC(=O)c1[nH]c(C)c(C(=O)OCC)c1C)C(=O)Nc1ccc(OC2CCN(C)CC2)nc1 (stereo not shown) [Example 6-91],≥ 200 nM
4,CCCC[C@H](NC(=O)c1[nH]c2c(c1CC)CCC(C)(C)C2)C(=O)Nc1ccccc1 [Example 6-101],≥ 200 nM
5,CCCCC(NC(=O)c1[nH]c2c(c1C)C(=O)CC(C)(C)C2)C(=O)NCc1ccc(CN2CCC(F)CC2)cc1 (stereo not shown) [Example 18-10],< 50 nM
6,Cc1c(C(=O)N[C@H](CCC2CC2)C(=O)N(C)[C@H](C)c2ccccc2)[nH]c2c1C(=O)CC(C)(C)C2 [Example 13-4],≥ 200 nM
7,CCCCC(NC(=O)c1[nH]c2c(c1C)C(=O)CC(C)(C)C2)C(=O)NCc1ccc(CN2CCCCC2)cc1 (stereo not shown) [Example 18-9],< 50 nM
8,CCCCC(NC(=O)c1[nH]c2c(c1C)C(=O)CC(C)(C)C2)C(=O)Nc1cnccc1CC (stereo not shown) [Example 6-22],50 to 200 nM
9,Cc1c(C(=O)NC(CCC2CC2)C(=O)NCc2ccc(CN(C)C)cc2)[nH]c2c1C(=O)CC(C)(C)C2 (stereo not shown) [Example 1-149],< 50 nM
10,CCCCC(NC(=O)c1[nH]c2ccc(OCC)cc2c1C)C(=O)Nc1ccc(OC2CCN(C)CC2)nc1 (stereo not shown) [Example 6-95],≥ 200 nM
11,CCCCC(NC(=O)c1[nH]c2c(c1C)C(=O)CC(C)(C)C2)C(=O)NCc1ccc(CN2CCCC(F)(F)C2)cc1 (stereo not shown) [Example 18-7],≥ 200 nM
12,"Cc1c(C(=O)NC(CCC2CC2)c2nc3ccccc3n2C)[nH]c2c1C(=O)CC(C)(C)C2 (stereo not shown) [Example 30-1, N-[3-cyclopropyl-1-(1-methylbenzoimidazol-2-yl)propyl]-3,6,6-trimethyl-4-oxo-5,7-dihydro-H-indole-2-carboxamide]",50 to 200 nM
13,CCCCC(NC(=O)c1[nH]c2c(c1C)C(=O)CC(C)(C)C2)C(=O)Nc1ccc(OC2CCNCC2)nc1 (stereo not shown) [Example 26-4],< 50 nM
14,CSCC[C@H](NC(=O)c1[nH]c2c(c1C)C(=O)CC(C)(C)C2)C(=O)Nc1ccccc1 [Example 6-90],≥ 200 nM
15,CCCCC(NC(=O)c1[nH]c2c(c1C)C(=O)CC(C)(C)C2)C(=O)NCc1ccc(CN2CCC(F)(F)CC2)cc1 (stereo not shown) [Example 18-8],≥ 200 nM
16,COc1ccc(NC(=O)C(CCC2CC2)NC(=O)c2ccc(NC3CCN(C)CC3)cc2)cn1 (stereo not shown) [Example 6-59],≥ 200 nM

row,SMILES,IC50
1,COc1ccc(NC(=O)C(CCC2CC2)NC(=O)c2ccc(OCCN(C)C)cc2)cn1 (stereo not shown) [Example 6-67],≥ 200 nM
2,CCCCC(NC(=O)c1ccc(Nc2ccncc2)cc1)C(=O)Nc1ccc(OC)nc1 (stereo not shown) [Example 6-100],< 50 nM
3,Cc1c(C(=O)NC(CCC2CC2)C(=O)Nc2ccccn2)[nH]c2c1C(=O)CC(C)(C)C2 (stereo not shown) [Example 6-9],≥ 200 nM
4,Cc1c(C(=O)NC(CCC2CC2)C(=O)N2CCc3c(CN4CCOCC4)cccc32)[nH]c2c1C(=O)CC(C)(C)C2 (stereo not shown) [Example 1-144],≥ 200 nM
5,Cc1c(C(=O)NC(CCC2CC2)C(=O)Nc2cccc(CN(C)C)c2)[nH]c2c1C(=O)CC(C)(C)C2 (stereo not shown) [Example 1-137],< 50 nM
6,CCCCC(NC(=O)c1[nH]c2c(c1C)C(=O)CC(C)(C)C2)C(=O)Nc1cccc(CN2CCCC2)c1 (stereo not shown) [Example 1-113],< 50 nM
7,Cc1c(C(=O)NC(CCC2CC2)C(=O)Nc2ccc(C#N)nc2)[nH]c2c1C(=O)CC(C)(C)C2 (stereo not shown) [Example 6-13],≥ 200 nM
8,COc1ccc(NC(=O)C(CCC2CC2)NC(=O)c2ccc(OCCCN(C)C)cc2)cn1 (stereo not shown) [Example 6-72],≥ 200 nM
9,"CCCC[C@H](NC(=O)c1[nH]c2c(c1C)C(=O)CC(C)(C)C2)c1nc2ccc(OCCCN(C)C)cc2[nH]1 [Example 34-1, (S)-N-(1-(6-(3-(dimethylamino)propyloxy)-1H-benzo[d]imidazol-2-yl)pentyl)-3,6,6-trimethyl-4-oxo-4,5,6,7-tetrahydro-1H-indole-2-carboxamide]",≥ 200 nM
10,CCCC[C@H](NC(=O)c1[nH]c2c(c1C)C(=O)CC(C)(C)C2)C(=O)N1CCc2c(OCC3CCN(C)CC3)cccc21 [Example 6-105],≥ 200 nM
11,CCCC[C@H](NC(=O)c1[nH]c2c(c1C(C)C)C(=O)CC(C)(C)C2)C(=O)Nc1ccccc1 [Example 6-36],50 to 200 nM
12,Cc1c(C(=O)NC(CCC2CC2)C(=O)NCc2ccccc2)[nH]c2c1C(=O)CC(C)(C)C2 (stereo not shown) [Example 6-18],50 to 200 nM
13,CCCC[C@H](NC(=O)c1[nH]c2c(c1C(C)C)C(=O)CC(C)(C)C2)C(=O)N[C@@H](C)c1ccccc1 [Example 6-41],50 to 200 nM
14,CCCC[C@H](NC(=O)c1[nH]c2c(c1C)C(=O)CC(C)(C)C2)c1nc2ccc(OCCCN3CCOCC3)cc2[nH]1 [Example 34-3],≥ 200 nM
15,CCCCC(NC(=O)c1ccc(N2CCN(C)CC2)cc1)C(=O)Nc1ccc(OC2CCN(C)CC2)nc1 (stereo not shown) [Example 6-98],≥ 200 nM
16,CCc1ncccc1NC(=O)C(CCC1CC1)NC(=O)c1[nH]c2c(c1C)C(=O)CC(C)(C)C2 (stereo not shown) [Example 6-6],50 to 200 nM

# Reference: patent US20230127046A1, “G9a INHIBITOR” (RIKEN, priority 2019, published 2023)
